Experimental data as given in US20200031778A1, “NOVEL 5-SUBSTITUTED IMIDAZOLYLMETHYL DERIVATIVES” (Bayer CropScience Aktiengesellschaft, priority 2016, published 2020).

Assay: Log P by HPLC on reversed phase columns (EEC directive 79/831 Annex V.A8; methods [a], [b], [c])
Type: physicochemical
Conditions: for chromatographic logP: reversed phase HPLC column
In short: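 Reversed-phase HPLC with LC-UV detection, 10→95% acetonitrile linear gradient; aqueous eluent 0.1% formic acid [a], 0.001 M ammonium acetate, neutral [b], or 0.1% phosphoric acid [c]. Calibrated against C3–C16 alkan-2-ones of known Log P by retention-time linear interpolation; multiple values within a method separated by "+".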

[1] = method [a]: LC-UV, acidic range, 0.1% formic acid in water and acetonitrile as eluent (linear gradient from 10% to 95% acetonitrile)

Row | Compound | LogP | also measured
1 | N#Cc1cncn1CC(O)(c1cc(F)ccc1Cl)C1(Cl)CC1 (stereo not drawn) [I-338] | 2.30^[a] | 
2 | N#Cc1cncn1CC(O)(CC1CC1)c1ccc(Br)cc1Br (stereo not drawn) [I-429] | 2.82^[a] | 
3 | N#Cc1cncn1CC(O)c1ccc(Oc2ccc(Cl)cc2)cc1Cl (stereo not drawn) [I-22] | 3.19^[a] | 
4 | N#Cc1cncn1CC(O)(c1ccc(C2CC2)cc1Cl)C1CC1 (stereo not drawn) [I-406] | 2.92^[a] | 
5 | CC(O)(Cn1cncc1Cl)c1ccc(Oc2ccc(C(F)(F)F)cc2)c(Br)c1 (stereo not drawn) [I-160] | 2.78^[a] | 
6 | N#Cc1cncn1CC(=O)c1ccccc1 [IX-101] |  | chromatographic logP [1]: 1.55
7 | N#Cc1cncn1CC(=O)c1cnc(Oc2ccc(C(F)(F)F)nc2)cc1C(F)(F)F [IX-105] |  | chromatographic logP [1]: 2.82
8 | CC(O)(Cn1cncc1F)c1cnc(Oc2ccc(C(F)(F)F)cc2)cc1Br (stereo not drawn) [I-243] | 2.36^[a] | 
9 | N#Cc1cncn1CC(O)(CCC1CCCCC1)C1(Cl)CC1 (stereo not drawn) [I-660, 1-[2-(1-chlorocyclopropyl)-4-cyclohexyl-2-hydroxybutyl]-1H-imidazole-5-carbonitrile] |  | chromatographic logP (method [a], HPLC on reversed phase columns): 3.79
10 | OC(Cn1cncc1F)c1cnc(Oc2ccc(Cl)cc2F)cc1C(F)(F)F (stereo not drawn) [I-113] | 2.35^[a] | 
11 | COC(C)(Cn1cncc1Br)c1ccc(Oc2ccc(Cl)cc2)cc1C(F)(F)F (stereo not drawn) [I-201] | 3.76^[a] | 
12 | CC(O)(Cn1cncc1Br)c1ccc(Oc2ccc(Cl)cc2)cc1F (stereo not drawn) [I-178] | 2.44^[a] | 
13 | N#Cc1cncn1CC(O)(c1ccc(F)cc1F)C1(F)CC1 (stereo not drawn) [I-352] | 2.08^[a] | 
14 | O=C(Cn1cncc1Br)c1ccc(Oc2ccc(Cl)cc2)cc1F [IX-46] |  | chromatographic logP [1]: 2.86
15 | N#Cc1cncn1CC(O)(CCc1ccc(OC(F)(F)F)c(F)c1)C1(Cl)CC1 (stereo not drawn) [I-359] | 3.31^[a] | 
16 | CC(C)(C)C(O)(Cn1cncc1C#N)c1ccc(F)cc1F (stereo not drawn) [I-385] | 2.71^[a] | 
17 | N#Cc1cncn1CC(O)c1ccc(Oc2ccc(Cl)nc2)cc1Cl (stereo not drawn) [I-43] | 2.37^[a] | 
18 | N#Cc1cncn1CC(O)c1ccc(F)cc1 (stereo not drawn) [I-117] | 1.37^[a] | 
19 | CC(C)(C)CC(O)(Cn1cncc1C#N)c1ccc(OC(F)(F)F)cc1 (stereo not drawn) [I-275] | 3.50^[a] | 
20 | COC(Cn1cncc1C#N)c1ccc(Oc2ccc(Br)cc2)cc1C(F)(F)F (stereo not drawn) [I-88] | 4.25^[a] | 
21 | CC(=O)c1cncn1CC(C)(O)c1cnc(Oc2ccc(C(F)(F)F)cc2)cc1Cl (stereo not drawn) [I-246] | 2.76^[a] | 
22 | CC(C)(C)c1ccc(C(O)(Cn2cncc2C#N)C2(Cl)CC2)cc1 (stereo not drawn) [I-247] | 3.29^[a] | 

Row | Compound | LogP | also measured
23 | CC(O)(Cn1cncc1F)c1ccc(Oc2ccc(C(F)F)cc2)nc1C(F)(F)F (stereo not drawn) [I-295] | 2.15^[a] | 
24 | COc1cc(F)ccc1C(O)Cn1cncc1Cl (stereo not drawn) [I-07] | 1.07^[a] | 
25 | CC(O)(Cn1cncc1Cl)c1ccc(Oc2ccc(Cl)cc2)cc1Cl (stereo not drawn) [I-167] | 2.86^[a] | 
26 | N#Cc1ccc(C(O)(Cn2cncc2C#N)C2(F)CC2)c(Cl)c1 (stereo not drawn) [I-389] | 2.04^[a] | 
27 | Cc1ccc(C#CC(O)(Cn2cncc2C#N)C2(Cl)CC2)cc1 (stereo not drawn) [I-293] | 2.82^[a] | 
28 | N#Cc1cncn1CC(O)(c1ccc(Cl)cc1F)C1CC1 (stereo not drawn) [I-413] | 2.50^[a] | 
29 | CC(O)(Cn1cncc1C#N)c1ccc(Oc2ccc(Cl)cc2)cc1C(F)(F)F (stereo not drawn) [I-209] | 3.51^[a] | 
30 | CC(C)CC(O)(Cn1cncc1C#N)c1ccc(Cl)cc1Cl (stereo not drawn) [I-303] | 3.39^[a] | 
31 | COC(C)(Cn1cncc1C#N)c1ccc(Oc2ccc(Br)cc2)cc1C(F)(F)F (stereo not drawn) [I-296] | 4.51^[a] | 
32 | N#Cc1cncn1CC(O)c1ccc(C(F)(F)F)cc1 (stereo not drawn) [I-141] | 1.90^[a] | 
33 | CC(=O)c1cncn1CC(=O)c1ccc(Oc2ccc(Cl)cc2)nc1C(F)(F)F [IX-119] |  | chromatographic logP [1]: 3.13
34 | CC(O)(Cn1cncc1F)c1ccc(Oc2ccc(Br)cc2)nc1C(F)(F)F (stereo not drawn) [I-213] | 2.35^[a] | 
35 | N#Cc1cncn1CC(O)(CC1CC1)c1cnc(Cl)cc1Cl (stereo not drawn) [I-510] | 2.07^[a] | 
36 | COc1ccc(Oc2ccc(C(C)(O)Cn3cncc3Cl)c(Cl)n2)c(Cl)c1 (stereo not drawn) [I-163] | 2.30^[a] | 
37 | CC(O)(Cn1cncc1F)c1cnc(Oc2ccc(C(F)(F)F)cc2)cc1Cl (stereo not drawn) [I-244] | 2.13^[a] | 
38 | OC(Cn1cncc1Cl)c1ccc(Oc2ccc(Cl)cc2)cc1Cl (stereo not drawn) [I-01] | 2.64^[a] | 
39 | CC(O)(Cn1cncc1C(F)(F)F)c1ccc(Oc2ccc(I)cc2)cc1F (stereo not drawn) [I-179] | 4.11^[a] | 
40 | N#Cc1cncn1CC(O)c1cnc(Oc2ccc(C(F)(F)F)cc2)cc1C(F)(F)F (stereo not drawn) [I-111] | 3.15^[a] | 
41 | CC(=O)c1cncn1CC(=O)c1cnc(Oc2ccc(Cl)cc2F)cc1C(F)(F)F [IX-102] |  | chromatographic logP [1]: 3.21
42 | N#Cc1cncn1CC(O)c1ccc(Oc2ccc(Cl)nc2)nc1C(F)(F)F (stereo not drawn) [I-151] | 2.37^[a] | 
43 | CCOC(Cn1cncc1C#N)c1ccc(Oc2ccc(Br)cc2)cc1Br (stereo not drawn) [I-64] | 4.64^[a] | 

More lines, main results first:

Row | LogP | Compound | also measured
44 | 1.53^[a] | NC(=S)c1cncn1CC(O)(CC1CC1)c1ccc(F)cc1F (stereo not drawn) [I-484] | 
45 | 3.79^[a] | CC(C)(C)C#Cc1ccc(C(O)(Cn2cncc2C#N)C2(Cl)CC2)c(F)c1 (stereo not drawn) [I-653] | 
46 | 2.07^[a] | N#Cc1cncn1CC(O)(c1c(F)ccc(F)c1F)C1(F)CC1 (stereo not drawn) [I-590] | 
47 | 3.80^[a] | N#Cc1cncn1CC(O)(CC1CCCCC1)c1ccc(Cl)cc1F (stereo not drawn) [I-468] | 
48 | 3.19^[a] | N#Cc1cncn1CC(O)(CCC1CCCCC1)C1(F)CC1 (stereo not drawn) [I-662] | 
49 | 2.02^[a] | N#Cc1cncn1CC(O)(c1cccc(F)c1F)C1(F)CC1 (stereo not drawn) [I-524] | 
50 | 2.88^[a] | CC(C)(C)C(O)(Cn1cncc1C#N)c1cc(F)cc(Cl)c1 (stereo not drawn) [I-495] | 
51 | 2.82^[a] | N#Cc1cncn1CC(O)(c1cc(Cl)c(Cl)cc1Cl)C1(F)CC1 (stereo not drawn) [I-576] | 
52 | 3.48^[a] | CCCC#Cc1ccc(C(O)(Cn2cncc2C#N)C2(Cl)CC2)c(F)c1 (stereo not drawn) [I-652] | 
53 | 2.78^[a] | N#Cc1cncn1CC(O)(CC1CC1)c1ccc(F)cc1Br (stereo not drawn) [I-443] | 
54 | 2.54^[a] | N#Cc1cncn1CC(O)(CC1CC1)c1cc(F)cc(Cl)c1 (stereo not drawn) [I-497] | 
55 | 2.54^[a] | N#Cc1cncn1CC(O)(c1cc(F)c(Cl)c(F)c1)C1(F)CC1 (stereo not drawn) [I-475] | 
56 | 2.28^[a] | N#Cc1cncn1CC(O)(CC1CC1)c1cc(Cl)cc(Cl)c1 (stereo not drawn) [I-503] | 
57 | 2.45^[a] | N#Cc1cncn1CC(O)(c1ccc(F)c(Cl)c1Cl)C1(F)CC1 (stereo not drawn) [I-624] | 
58 | 2.54^[a] | N#Cc1cncn1CC(O)(c1ccc(F)c(Br)c1F)C1(Cl)CC1 (stereo not drawn) [I-616] | 
59 | 2.97^[a] | N#Cc1cncn1CC(O)(CC1CC1)c1cc(F)c(Cl)c(Cl)c1 (stereo not drawn) [I-530] | 
60 | 2.73^[a] | CC(C)(C)C(O)(Cn1cncc1C#N)c1ccc(Cl)cn1 (stereo not drawn) [I-528] | 
61 | 2.66^[a] | Cc1cc(C(O)(Cn2cncc2C#N)C2(F)CC2)c(F)cc1Cl (stereo not drawn) [I-507] | 
62 | 2.35^[a] | C=C(C)CC(O)(Cn1cncc1C#N)C1(Cl)CC1 (stereo not drawn) [I-675] | 
63 | 1.76^[a] | OC(Cn1cncc1F)(c1ccc(Br)cc1Cl)C1(F)CC1 (stereo not drawn) [I-430] | 
64 | 2.70^[a] | N#Cc1cncn1CC(O)(c1ccc(Br)cc1Cl)C1(Cl)CC1 (stereo not drawn) [I-648] | 
65 | 2.25^[a] | CC(C)CC#CC(O)(Cn1cncc1C#N)C1(F)CC1 (stereo not drawn) [I-540] | 
66 | 2.25^[a] | N#Cc1cncn1CC(O)(c1ccc(F)c(F)c1Cl)C1(F)CC1 (stereo not drawn) [I-636] | 
67 | 2.86^[a] | N#Cc1cncn1CC(O)(CC1CC1)c1ccc(Cl)c(Br)c1 (stereo not drawn) [I-533] | 
68 | 2.75^[a] | N#Cc1cncn1CC(O)(c1cc(F)c(Cl)cc1Cl)C1(Cl)CC1 (stereo not drawn) [I-585] | 
69 | 2.23^[a] | N#Cc1cncn1CC(O)(c1c(F)cc(F)cc1Cl)C1(F)CC1 (stereo not drawn) [I-574] | 
